Consider two compounds from patent US20250346550A1, “METHODS OF MODULATING ENDONUCLEASE G USING RESVERATROL AND ITS DERIVATIVES” (THE REGENTS OF THE UNIVERSITY OF COLORADO A BODY CORPORATE, priority 2022, published 2025).

The test system of test [1] is paternal mitochondrial elimination (PME) in C. elegans wild-type (N2) cross-fertilized embryos. As to the kind of experiment: PME fluorescent microscopy assay (MTR-stained paternal mitochondrial clusters), N2 males x N2 hermaphrodites. Particulars: for effect on PME when males were treated: 50 μM pretreatment of males before mating (FIG. 3a, b); for dynamics of PME at different embryonic stages: 50 μM vs 0.25% ethanol mock (FIG. 1g, FIG. 12); for effect on PME: 64-cell embryos (FIG. 1b, d); for effect on PME of the UV-irradiated solution: compound irradiated with UV for 4 hours, 64-cell embryos (FIG. 1e, f); for concentration sufficient to significantly affect PME / concentration showing maximal PME activity: dose series (FIG. 7a, b); for concentration sufficient to significantly affect PME: cis: inhibition, 64-cell, trans: enhancement, 16-cell; for concentration showing maximal PME activity: cis: inhibitory, trans: enhancing. It counts as in vivo. The protocol:
FIG. 1. […] The numbers of MTR-stained paternal mitochondrial clusters in 64-cell cross-fertilized embryos from mating of MTR-stained N2 males with N2 hermaphrodites in the presence of the indicated compounds (100 μM) were scored. n≥15 embryos for each compound. b, d-g, Quantification of MTR-stained paternal mitochondrial clusters in 64-cell stage embryos (b, d-f) or in embryos at the indicated stage (g) from the cross between MTR-stained N2 males and N2 hermaphrodites, in the presence of 0.25% ethanol (Mock) or 50 μM of the indicated compound. In each experiment, n>40 embryos (b,d,e), n=20 embryos (f), and n≥10 embryos (g) were scored, respectively. […] Data are mean±s.e.m. **P<0.01, ***P<0.001; n.s., not significant, two-sided, unpaired t-test.
FIG. 7. Effects of different dosages of resveratrol isomers on PME. a, b, The effects of different dosages of cis-resveratrol (a) and trans-resveratrol (b) on PME. The numbers of MTR-stained paternal mitochondrial clusters in 64-cell embryos (a) or 16-cell embryos (b) from mating of MTR-stained N2 males with N2 hermaphrodites in the presence of the indicated concentrations of resveratrol isomers were scored. […] N2 hermaphrodites and MTR-stained uaDf5/+ males were mated as indicated in the presence of 0.25% ethanol (Mock, d), 50 μM trans-resveratrol (e), or 50 μM cis-resveratrol (f). Males also carried smIs42, an integrated Psur-5sur-5::gfp transgene, which directs GFP expression in all somatic cells in most developmental stages, and was used to track cross progeny. A single cross-fertilized embryo or larva (MTR- or GFP-positive) at the indicated stage was analyzed by PCR. uaDf5/+ and N2 hermaphrodites were controls.
FIG. 12. […] Quantification of MTR-stained paternal mitochondrial clusters at the indicated embryonic stages from the cross between MTR-stained N2 males and N2 hermaphrodites, in the presence of 0.25% ethanol (Mock) or 50 μM of the indicated compound. In each experiment, n≥10 embryos embryos. Data are mean±s.e.m. **P<0.01, ***P<0.001; n.s., not significant, two-sided, unpaired t-test.
Following fertilization, paternal mitochondria are rapidly depolarized and damaged in fertilized eggs, which could generate and release reactive oxygen species (ROS) that affect PME and embryo development. We thus screened twelve small molecules derived from natural products that have been used as antioxidants for the potential activity in modulating PME (FIG. 6a), using a fluorescent microscopy assay. In this assay, C. elegans wild-type (N2) males prestained with Mitotracker Red (MTR), a mitochondrion-specific fluorescent dye, were mated with unstained N2 hermaphrodites in the presence of the compound of interest ([…]) and the cross-fertilized embryos were examined for the presence of MTR-stained paternal mitochondria or mitochondrial clusters.

The subject of test [2] is germline tumor in daf-16(mu86); cki-2(ok2105); glp-1(ar202) mutant (ET507). As to the kind of experiment: germline tumor model (ET507). Format: in vivo, C. elegans. Particulars: 200 μM, ET507 animals at 20° C.; for tumor size: adult day 5, vs 1% ethanol; for tumor occurring frequency: vs 1% ethanol. The protocol: FIG. 9. Cis-resveratrol inhibits and trans-resveratrol promotes germline tumor formation. Tumor size and tumor occurring frequency of the daf-16(mu86); cki-2(0k2105); glp-1 (ar202) mutant grown at 20° C. and treated with 1% ethanol (Mock), 200 μM cis-resveratrol (Cis), and 200 μM trans-resveratrol (Trans), respectively, are shown. Tumor assays were performed in triplicate with 100 animals per replicate. a, A five-stage classification was created to measure the tumor size in adult day 5 animals under the Normaski optic. Score 1 denotes the normal gonads seen in wild-type animals. Score 5 denotes enlarged gonads full of mitotic germ cells and without any egg or oocyte. Score 2-4 denote partially enlarged gonads. b, Tumor frequency indicates the percentage of animals with enlarged gonads (score 5). Data from three independent biological replicates are shown as mean±SEM. *P<0.05; **P<0.01; ***P<0.001, two-sided, unpaired t-test.
FIG. 14. stabilized cis-resveratrol inhibits germline tumor formation as well as cis-resveratrol. Tumor occurring frequency of the daf-16 (mu86); cki-2 (0k2105); glp-1 (ar202) mutant (ET507) grown at 20° C. and treated with 0.25% ethanol (Mock), 100 μM cis-resveratrol, and 100 μM Stabilized cis-resveratrol, respectively, are shown. Tumor assays were performed in triplicate with 100 animals per replicate. Data are mean±s.e.m. ****P<0.001, two-sided, unpaired t-test
The present inventors tested whether resveratrol isomers affect tumorigenesis in a C. elegans germline tumor model (ET507), in which three cell growth genes, daf-16, cki-2, and glp-1, are mutated, leading to uncontrolled germ cell proliferation and germline tumor.

In test [3] the test system is PME defect of rad-23 deficient animals (proteasome pathway). As to the kind of experiment: PME microscopy assay in rad-23(tm2595) crosses. It counts as in vivo, C. elegans. The conditions noted are these: 50 μM, 64-cell embryos (FIG. 3d). On the procedure: FIG. 3. Resveratrol isomers target CPS-6 to affect PME. a, b, Both cis-resveratrol and trans-resveratrol act paternally to affect PME. The numbers of MTR-stained paternal mitochondrial clusters in embryos at 64-cell (a) or 16-cell (b) stage from the indicated crosses were scored. N2 males or hermaphrodites were pretreated with 0.25% ethanol (Mock), 50 μM cis-resveratrol (a), or 50 μM trans-resveratrol (b) as indicated before mating. c-g, Quantification of MTR-stained paternal mitochondrial clusters in 64-cell embryos from the indicated crosses treated with 0.25% ethanol (Mock), 50 μM cis-resveratrol, and 50 μM trans-resveratrol, respectively. Alleles used are lgg-1(bp523), cps-6(tm3222) and rad-23(tm2595). Data are mean s.e.m; n≥15 embryos (a) and n≥20 embryos (b, c-g) were scored in each experiment. ***P<0.001; n.s., not significant, two-sided, unpaired t-test. h, Resveratrol isomers enhance or inhibit the nuclease activity of CPS-6 in a plasmid DNA cleavage assay. 10 ng of CPS-6 were incubated with 0.25% ethanol (Mock), 20 μM cis-resveratrol, or 20 μM trans-resveratrol in dark at 4° C. for 1.5 hours, before 1 μg of the pPD49.78 plasmid DNA were added to the reactions. After further incubation at 30° C. for 1 hour, the reactions were resolved on a 1% agarose gel. Three different forms of plasmid DNA are indicated. […]

Structures are written as SMILES. “Also recorded” adds a separate entry of the source.

With `Oc1ccc(/C=C/c2cc(O)cc(O)c2)cc1` [trans-resveratrol, 3,5,4′-trihydroxy-trans-stilbene], in test [1], the “effect on PME when males were treated” value was “only acted through males to enhance PME”, the “dynamics of PME at different embryonic stages” value is on record as “accelerated elimination of paternal mitochondria; also recorded: identical activity in promoting PME”, the “concentration sufficient to significantly affect PME” value was found to be 25 µM and the “concentration showing maximal PME activity” value amounted to 50 µM. Further, in test [1] (50 μM), the “effect on PME” value is listed as “did not inhibit PME” and the “effect on PME of the UV-irradiated solution” value is reported as “acquired the activity to inhibit PME”. For the same compound, in test [2], the tumor size result is recorded as “increases” and the tumor occurring frequency result is “increases”. Moreover, in test [3], the “effect on PME defects in rad-23 deficient animals” value was “inhibited”.

With `Oc1ccc(/C=C\c2cc(O)cc(O)c2)cc1` [cis-resveratrol], in test [1], the “effect on PME when males were treated” value was “PME was suppressed”, the “dynamics of PME at different embryonic stages” value is on record as “blocked rapid elimination of paternal mitochondria”, the “concentration sufficient to significantly affect PME” value stood at 1 µM and the “concentration showing maximal PME activity” value stood at 50 µM. In test [1] (50 μM), the “effect on PME” value was “inhibited PME better than the aged trans-resveratrol” and the “effect on PME of the UV-irradiated solution” value is listed as “reduced PME inhibitory activity”. Moreover, the “effect on PME when only hermaphrodites were treated” value in test [1] (50 μM, males mock treated (FIG. 3a)) is “PME proceeded normally”. Besides, the “average paternal mitochondrial clusters in 64-cell embryos” value in test [1] (freshly prepared, 50 μM (FIG. 1d)) came to 16 clusters. Besides, in test [2], the tumor size entry is listed as “reduces” and the tumor occurring frequency result is “reduces”. The “effect on PME defects in rad-23 deficient animals” value in test [3] is on record as “enhanced”.
